Patent US20070066546A1, “Compositions for the reversible thioesterification of signaling proteins and methods of using same” (priority 2005, published 2007)

Legend:
[1] = system: mouse embryonic fibroblast; conditions: cited from earlier work
OxyR = OxyR (Escherichia coli, UniProt P0ACQ4); experiment: In vitro transcription and primer extension with avicin-modified OxyR (katG and oxyS templates); type: biochemical, E. coli; conditions: for relative potency as activator of OxyR (in vitro transcriptional activity): comparison between F094, avicin D and avicin G; for OxyR activation as assessed by in vitro transcriptional activation of katG and oxyS: reduced OxyR, strictly anaerobic conditions, avicins:OxyR 1:10-100:1
Sequence of OxyR (P0ACQ4 whole entry): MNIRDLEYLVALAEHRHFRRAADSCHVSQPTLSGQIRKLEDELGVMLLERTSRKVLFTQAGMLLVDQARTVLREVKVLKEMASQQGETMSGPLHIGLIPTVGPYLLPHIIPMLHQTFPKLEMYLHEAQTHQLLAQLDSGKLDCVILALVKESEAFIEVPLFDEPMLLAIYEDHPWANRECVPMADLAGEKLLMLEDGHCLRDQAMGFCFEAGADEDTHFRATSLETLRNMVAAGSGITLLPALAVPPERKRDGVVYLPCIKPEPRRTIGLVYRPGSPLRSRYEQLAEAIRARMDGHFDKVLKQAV
Method: Reduction of OxyR. The reduced form of OxyR was generated by addition of a large excess of DTT (200 mM) for 1 h, followed by exhaustive dialysis (25 mM potassium phosphate/250 mM potassiumsulfate/1 mM magnesium sulfate/100 μM DTPA, pH 8) in an anaerobic glove box. Removal of DTT was monitored by the color change after addition of 5,5′-dithionitrobenzoic acid to an aliquot of the dialysis buffer.
Treatment of OxyR with Avicins. Reduced OxyR was treated with a 10-fold molar excess of F094 or purified avicin D or G to generate avicin-modified OxyR. The reaction was performed under anaerobic conditions for 1 h, followed by dialysis.
In Vitro Transcription and Primer Extension. In vitro transcription with the various modified forms of OxyR was performed as described (Kim, S. O., et al. (2002) Cell 109, 383-396). Plasmid pBT22 was used as the katG template and pUCOXYS, a plasmid containing the oxyS-coding region cloned into pUC19, was used as the oxyS template. Where indicated, avicin-modified forms of OxyR were reduced with 200 mM DTT. Primer extension assays were performed by using AMV reverse transcriptase (Promega), according to instructions supplied by the manufacturer.
Avicin modified OxyR was incubated with plasmids containing the katG or oxyS genes followed by primer extension (see Materials and Methods). After primer extension, samples were untreated or treated with DTT before gel analysis. Band intensities were quantified (phosphoimager), and data are plotted at top as percent maximal activation (n=2-3). At bottom, corresponding raw data from an individual experiment are depicted.

[2] = system: E. coli strain RK4936 (wild-type); experiment: Hydroperoxidase I (HPI) assay in crude extracts of treated wild-type bacteria; type: cell-based; conditions: wild-type cells, 100 μM, 60 min
Method: (§1) Hydroperoxidase I (HPI) Assay. The peroxidase activity of HPI was measured as described (Hausladen, A. et al. (1996) Cell 86, 719-729), in 50 mM potassium phosphate buffer (pH 7.5) containing 0.1 mM EDTA, 10 mM H2O2, and 0.2 mg/ml o-dianisidine, by measuring the increase in absorbance at 460 nm (Clairborne, A. & Fridovich, I. (1979) Biochemistry 18, 2324-2329). An extinction coefficient of 11.3 mM^−1 cm^−1 was used to calculate the specific activity of HPI ((1993) in Worthington Enzyme Manual: Peroxidase, ed. Worthington, V. (Worthington Biochemical Corporation, Freehold, N.J.)).
(§2) HPI, the enzyme encoded by the katG gene, protects bacterial cells against hydrogen peroxide-induced stress. E. coli strains RK4936 (wild-type) and TA4112 (OxyR-null) were grown aerobically to an A600 of 0.5 and then treated with 100 μM F094 or avicin D or G for 60 min. Cells were harvested by centrifugation, and the peroxidase activity in crude extracts was determined (see Materials and Methods). Wild-type (RK4936) and OxyR-null (TA4112) strains of bacteria were treated with avicins and assayed for HPI activity.

[3] = system: E. coli strain TA4112 (OxyR-null); experiment: Hydroperoxidase I (HPI) assay in crude extracts of treated OxyR-null bacteria; type: cell-based; conditions: OxyR-null cells, 100 μM, 60 min
Method: as §1, §2

Q: For CC(=O)N[C@@H](CS)C(=O)O [NAC, N-acetyl-L-cysteine], which “decrease in cyclin D1 protein levels” value ([1]; NAC treatment) is on record?
A: 70%

Q: And the “increase in p27 protein levels” value ([1]; NAC treatment)?
A: 3-4 fold

Q: What about the “increase in intracellular low-molecular-weight thiols” value ([1]; treatment for 12 h) of the same compound?
A: 6 fold

Q: What does the source list for C=C[C@](C)(O)CC/C=C(\CO)C(=O)O[C@H]1[C@H](O)[C@@H](O)[C@H](O[C@@](C)(C=C)CC/C=C(\CO)C(=O)O[C@H]2C[C@]3(C(=O)O[C@@H]4O[C@H](CO)[C@@H](O)[C@H](O)[C@H]4O[C@@H]4O[C@@H](C)[C@H](O[C@@H]5O[C@@H](CO)[C@H](O)[C@H]5O)[C@@H](O[C@@H]5O[C@H](CO)[C@@H](O)[C@H](O)[C@H]5O)[C@H]4O)[C@H](O)C[C@]4(C)C(=CC[C@@H]5[C@@]6(C)CC[C@H](O[C@@H]7O[C@H](CO[C@@H]8O[C@H](C)[C@H](O)[C@H](O)[C@H]8O[C@@H]8OC[C@@H](O)[C@H](O)[C@H]8O)[C@@H](O)[C@H](O)[C@H]7NC(C)=O)C(C)(C)[C@@H]6CC[C@]54C)[C@@H]3CC2(C)C)O[C@@H]1C [avicin D]?
A: relative potency as activator of OxyR (in vitro transcriptional activity) (OxyR): more potent activators than avicin G; OxyR activation as assessed by in vitro transcriptional activation of katG and oxyS (OxyR): resulted in OxyR activation; HPI activity [2]: doubled HPI activity; HPI activity [3]: no increase in activity

Q: Which results are given for C=C[C@](C)(O)CC/C=C(\C)C(=O)O[C@H]1[C@H](O)[C@@H](O)[C@H](O[C@@](C)(C=C)CC/C=C(\CO)C(=O)O[C@H]2C[C@]3(C(=O)O[C@@H]4O[C@H](CO)[C@@H](O)[C@H](O)[C@H]4O[C@@H]4O[C@@H](C)[C@H](O[C@@H]5O[C@@H](CO)[C@H](O)[C@H]5O)[C@@H](O[C@@H]5O[C@H](CO)[C@@H](O)[C@H](O)[C@H]5O)[C@H]4O)[C@H](O)C[C@]4(C)C(=CC[C@@H]5[C@@]6(C)CC[C@H](O[C@@H]7O[C@H](CO[C@@H]8O[C@H](C)[C@H](O)[C@H](O)[C@H]8O[C@@H]8OC[C@@H](O)[C@H](O)[C@H]8O)[C@@H](O)[C@H](O)[C@H]7NC(C)=O)C(C)(C)[C@@H]6CC[C@]54C)[C@@H]3CC2(C)C)O[C@@H]1C [avicin G]?
A: relative potency as activator of OxyR (in vitro transcriptional activity) (OxyR): lower; OxyR activation as assessed by in vitro transcriptional activation of katG and oxyS (OxyR): resulted in OxyR activation; HPI activity [2]: doubled HPI activity; HPI activity [3]: no increase in activity
